Laboratory results as given in US20260250257A1, “ANTIBACTERIAL AND SYNERGISTIC ACTIVE COMPOUND AND USE THEREOF” (EAST CHINA UNIVERSITY OF SCIENCE AND TECHNOLOGY, priority 2023, published 2026).
≈ marks a conversion by molar mass, not a printed value.

test system: ATCC25922 strain (Escherichia coli); assay: Broth microdilution, antibacterial activity of the compound used alone; type: cell-based; details: not given
From the text: (§1) The broth microdilution method was used to test the antibacterial effects of the compounds of the present invention against various Gram-negative bacterial strains when used alone.

| Structure (SMILES) | Antibacterial activity of the compound of Formula I, ATCC25922 |
| --- | --- |
| NC(N)=Nc1nc(-c2ccc(OCc3ccccc3)cc2)cs1 [Compound I-9] | 256 µg/mL |
| CSc1cc2cc(C)cc(C)n2c1-c1nc(N=C2NCCCN2)sc1C [Compound I-195] | 256 µg/mL |
| CC(C)c1ccccc1-c1nc(N=C2NCCCN2)sc1Br [Compound I-164] | 256 µg/mL |
| Cc1sc(N=C(N)N)nc1-c1ccccc1Oc1ccccn1 [Compound I-101] | 256 µg/mL |
| Ic1cccc(-c2csc(N=C3NCCCN3)n2)c1 [Compound I-180] | 256 µg/mL |
| Cc1ccc(Sc2ccccc2-c2coc(N=C(N)N)n2)c(C)c1 [Compound I-108] | 256 µg/mL |
| NC(N)=Nc1nc(-c2cccc(Oc3ccc(Cl)cc3Cl)c2)cs1 [Compound I-95] | 256 µg/mL |

same assay, conditions: read-out: Antibacterial activity of the compound of Formula I, ATCC25922

| MIC | Structure (SMILES) |
| --- | --- |
| 256 µg/mL (≈ 983 µM) | Cc1cc(C)c(-c2csc(N=C(N)N)n2)c(C)c1 [Compound I-51] |

test system: ATCC19606 strain (Acinetobacter baumannii); assay: as above; type: cell-based; details: not given
From the text: as §1

| Structure (SMILES) | Antibacterial activity of the compound of Formula I, ATCC19606 |
| --- | --- |
| NC(N)=Nc1nc(-c2ccc(OCc3ccccc3)cc2)cs1 [Compound I-9] | 256 µg/mL |
| CSc1cc2cc(C)cc(C)n2c1-c1nc(N=C2NCCCN2)sc1C [Compound I-195] | 256 µg/mL |
| CC(C)c1ccccc1-c1nc(N=C2NCCCN2)sc1Br [Compound I-164] | 256 µg/mL |
| Cc1sc(N=C(N)N)nc1-c1ccccc1Oc1ccccn1 [Compound I-101] | 256 µg/mL |
| Ic1cccc(-c2csc(N=C3NCCCN3)n2)c1 [Compound I-180] | 256 µg/mL |
| Cc1ccc(Sc2ccccc2-c2coc(N=C(N)N)n2)c(C)c1 [Compound I-108] | 256 µg/mL |
| NC(N)=Nc1nc(-c2cccc(Oc3ccc(Cl)cc3Cl)c2)cs1 [Compound I-95] | 256 µg/mL |

same assay, conditions: read-out: Antibacterial activity of the compound of Formula I, ATCC19606

| MIC | Structure (SMILES) |
| --- | --- |
| 256 µg/mL (≈ 983 µM) | Cc1cc(C)c(-c2csc(N=C(N)N)n2)c(C)c1 [Compound I-51] |

test system: ATCC13883 strain (Klebsiella pneumoniae); assay: as above; type: cell-based; details: not given
From the text: as §1

| Structure (SMILES) | Antibacterial activity of the compound of Formula I, ATCC13883 |
| --- | --- |
| NC(N)=Nc1nc(-c2ccc(OCc3ccccc3)cc2)cs1 [Compound I-9] | 256 µg/mL |
| CSc1cc2cc(C)cc(C)n2c1-c1nc(N=C2NCCCN2)sc1C [Compound I-195] | 256 µg/mL |
| CC(C)c1ccccc1-c1nc(N=C2NCCCN2)sc1Br [Compound I-164] | 256 µg/mL |
| Cc1sc(N=C(N)N)nc1-c1ccccc1Oc1ccccn1 [Compound I-101] | 256 µg/mL |
| Ic1cccc(-c2csc(N=C3NCCCN3)n2)c1 [Compound I-180] | 256 µg/mL |
| Cc1ccc(Sc2ccccc2-c2coc(N=C(N)N)n2)c(C)c1 [Compound I-108] | 256 µg/mL |
| NC(N)=Nc1nc(-c2cccc(Oc3ccc(Cl)cc3Cl)c2)cs1 [Compound I-95] | 256 µg/mL |

same assay, conditions: read-out: Antibacterial activity of the compound of Formula I, ATCC13883

| MIC | Structure (SMILES) |
| --- | --- |
| 256 µg/mL (≈ 983 µM) | Cc1cc(C)c(-c2csc(N=C(N)N)n2)c(C)c1 [Compound I-51] |

test system: ATCC9027 strain (Pseudomonas aeruginosa); assay: as above; type: cell-based; details: not given
From the text: as §1

| Structure (SMILES) | Antibacterial activity of the compound of Formula I, ATCC9027 |
| --- | --- |
| NC(N)=Nc1nc(-c2ccc(OCc3ccccc3)cc2)cs1 [Compound I-9] | 256 µg/mL |
| CSc1cc2cc(C)cc(C)n2c1-c1nc(N=C2NCCCN2)sc1C [Compound I-195] | 256 µg/mL |
| CC(C)c1ccccc1-c1nc(N=C2NCCCN2)sc1Br [Compound I-164] | 256 µg/mL |
| Cc1sc(N=C(N)N)nc1-c1ccccc1Oc1ccccn1 [Compound I-101] | 256 µg/mL |
| Ic1cccc(-c2csc(N=C3NCCCN3)n2)c1 [Compound I-180] | 256 µg/mL |
| Cc1ccc(Sc2ccccc2-c2coc(N=C(N)N)n2)c(C)c1 [Compound I-108] | 256 µg/mL |
| NC(N)=Nc1nc(-c2cccc(Oc3ccc(Cl)cc3Cl)c2)cs1 [Compound I-95] | 256 µg/mL |

same assay, conditions: read-out: Antibacterial activity of the compound of Formula I, ATCC9027

| MIC | Structure (SMILES) |
| --- | --- |
| 256 µg/mL (≈ 983 µM) | Cc1cc(C)c(-c2csc(N=C(N)N)n2)c(C)c1 [Compound I-51] |

test system: ATCC25922 strain (Escherichia coli); assay: Checkerboard antibacterial synergistic activity test with polymyxin E (FIC); type: cell-based; design: key: FIC≤0.5 synergy; 0.5–1 additive; 1–2 indifferent; ≥2 antagonism; details: combined with polymyxin E
Method in brief: (§2)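 Interaction is reported as the fractional inhibitory concentration, read after 16 h of growth at 37° C. in Mueller-Hinton broth. Each well paired one level of polymyxin E (prepared at 16 to 0.015 μg/ml) with one of the test agent (prepared at 256 to 4 μg/ml) before bacteria were added.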

| Structure (SMILES) | Synergistic activity (FIC value) ATCC25922 |
| --- | --- |
| NC(N)=Nc1nc(-c2ccc(OCc3ccccc3)cc2)cs1 [Compound I-9] | 0.26 |
| CSc1cc2cc(C)cc(C)n2c1-c1nc(N=C2NCCCN2)sc1C [Compound I-195] | 0.31 |
| CC(C)c1ccccc1-c1nc(N=C2NCCCN2)sc1Br [Compound I-164] | 0.39 |
| Cc1cc(C)c(-c2csc(N=C(N)N)n2)c(C)c1 [Compound I-51] | 0.5 |
| Cc1sc(N=C(N)N)nc1-c1ccccc1Oc1ccccn1 [Compound I-101] | 1.25 |
| Ic1cccc(-c2csc(N=C3NCCCN3)n2)c1 [Compound I-180] | 1.25 |
| Cc1ccc(Sc2ccccc2-c2coc(N=C(N)N)n2)c(C)c1 [Compound I-108] | 0.18 |
| NC(N)=Nc1nc(-c2cccc(Oc3ccc(Cl)cc3Cl)c2)cs1 [Compound I-95] | 0.04 |

test system: ATCC19606 strain (Acinetobacter baumannii); assay: as above; type: cell-based; design: key: FIC≤0.5 synergy; 0.5–1 additive; 1–2 indifferent; ≥2 antagonism; details: combined with polymyxin E
Method in brief: as §2

| Structure (SMILES) | Synergistic activity (FIC value) ATCC19606 |
| --- | --- |
| NC(N)=Nc1nc(-c2ccc(OCc3ccccc3)cc2)cs1 [Compound I-9] | 0.13 |
| CSc1cc2cc(C)cc(C)n2c1-c1nc(N=C2NCCCN2)sc1C [Compound I-195] | 0.14 |
| CC(C)c1ccccc1-c1nc(N=C2NCCCN2)sc1Br [Compound I-164] | 0.15 |
| Cc1cc(C)c(-c2csc(N=C(N)N)n2)c(C)c1 [Compound I-51] | 1.25 |
| Cc1sc(N=C(N)N)nc1-c1ccccc1Oc1ccccn1 [Compound I-101] | 0.25 |
| Ic1cccc(-c2csc(N=C3NCCCN3)n2)c1 [Compound I-180] | 0.26 |
| Cc1ccc(Sc2ccccc2-c2coc(N=C(N)N)n2)c(C)c1 [Compound I-108] | 0.03 |
| NC(N)=Nc1nc(-c2cccc(Oc3ccc(Cl)cc3Cl)c2)cs1 [Compound I-95] | 0.38 |

test system: ATCC13883 strain (Klebsiella pneumoniae); assay: as above; type: cell-based; design: key: FIC≤0.5 synergy; 0.5–1 additive; 1–2 indifferent; ≥2 antagonism; details: combined with polymyxin E
Method in brief: as §2

| Structure (SMILES) | Synergistic activity (FIC value) ATCC13883 |
| --- | --- |
| NC(N)=Nc1nc(-c2ccc(OCc3ccccc3)cc2)cs1 [Compound I-9] | 0.16 |
| CSc1cc2cc(C)cc(C)n2c1-c1nc(N=C2NCCCN2)sc1C [Compound I-195] | 0.25 |
| CC(C)c1ccccc1-c1nc(N=C2NCCCN2)sc1Br [Compound I-164] | 0.33 |
| Cc1cc(C)c(-c2csc(N=C(N)N)n2)c(C)c1 [Compound I-51] | 1.25 |
| Cc1sc(N=C(N)N)nc1-c1ccccc1Oc1ccccn1 [Compound I-101] | 1.25 |
| Ic1cccc(-c2csc(N=C3NCCCN3)n2)c1 [Compound I-180] | 1.25 |
| Cc1ccc(Sc2ccccc2-c2coc(N=C(N)N)n2)c(C)c1 [Compound I-108] | 0.16 |
| NC(N)=Nc1nc(-c2cccc(Oc3ccc(Cl)cc3Cl)c2)cs1 [Compound I-95] | 0.19 |

test system: ATCC9027 strain (Pseudomonas aeruginosa); assay: as above; type: cell-based; design: key: FIC≤0.5 synergy; 0.5–1 additive; 1–2 indifferent; ≥2 antagonism; details: combined with polymyxin E
Method in brief: as §2

| Structure (SMILES) | Synergistic activity (FIC value) ATCC9027 |
| --- | --- |
| NC(N)=Nc1nc(-c2ccc(OCc3ccccc3)cc2)cs1 [Compound I-9] | 0.31 |
| CSc1cc2cc(C)cc(C)n2c1-c1nc(N=C2NCCCN2)sc1C [Compound I-195] | 0.52 |
| CC(C)c1ccccc1-c1nc(N=C2NCCCN2)sc1Br [Compound I-164] | 0.62 |
| Cc1cc(C)c(-c2csc(N=C(N)N)n2)c(C)c1 [Compound I-51] | 1.25 |
| Cc1sc(N=C(N)N)nc1-c1ccccc1Oc1ccccn1 [Compound I-101] | 0.52 |
| Ic1cccc(-c2csc(N=C3NCCCN3)n2)c1 [Compound I-180] | 1.25 |
| Cc1ccc(Sc2ccccc2-c2coc(N=C(N)N)n2)c(C)c1 [Compound I-108] | 0.28 |
| NC(N)=Nc1nc(-c2cccc(Oc3ccc(Cl)cc3Cl)c2)cs1 [Compound I-95] | 0.04 |
